Measurements taken from patent US20230295118A1 (EnhancedBio Inc., priority 2022, published 2023).
Read-outs that look alike come from different tables or passages of the source.

Tests used:
Type in all cases: cell-based
[1] = tested on: mantle cell lymphoma cell (Mino or JeKo-1); test: Antiproliferative effect, MTS cell viability assay
Procedure, shortened: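 MTS read-out (formazan absorbance at 490 nm) after 72 h exposure of Mino cells to 0–1 μM compound (0.0001, 0.001, 0.01, 0.1, 1 μM). Palbociclib and abemaciclib served as positive controls.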

[2] = molecular target: T1, CDK6 (Homo sapiens, UniProt Q00534); test: CDK6 degradation (DC50, Dmax)
T1 construct: endogenous in cells

[3] = molecular target: T2, CDK4 (Homo sapiens, UniProt P11802); test: CDK4 degradation (DC50, Dmax)
T2 construct: endogenous in cells

[4] = 72 h, mantle cell lymphoma cell (Mino or JeKo-1), MTS assay, read-out: IC50 (anti-proliferation)

T1 sequence (Q00534 whole entry): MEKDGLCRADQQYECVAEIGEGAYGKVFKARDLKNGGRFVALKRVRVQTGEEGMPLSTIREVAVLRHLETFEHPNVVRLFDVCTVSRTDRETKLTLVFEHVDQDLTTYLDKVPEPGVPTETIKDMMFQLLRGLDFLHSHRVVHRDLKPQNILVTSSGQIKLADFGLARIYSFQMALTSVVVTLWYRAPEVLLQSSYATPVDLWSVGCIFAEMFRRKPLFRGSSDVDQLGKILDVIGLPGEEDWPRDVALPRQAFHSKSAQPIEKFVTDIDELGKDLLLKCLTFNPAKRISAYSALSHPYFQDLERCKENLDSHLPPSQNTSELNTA
T2 sequence (P11802 whole entry): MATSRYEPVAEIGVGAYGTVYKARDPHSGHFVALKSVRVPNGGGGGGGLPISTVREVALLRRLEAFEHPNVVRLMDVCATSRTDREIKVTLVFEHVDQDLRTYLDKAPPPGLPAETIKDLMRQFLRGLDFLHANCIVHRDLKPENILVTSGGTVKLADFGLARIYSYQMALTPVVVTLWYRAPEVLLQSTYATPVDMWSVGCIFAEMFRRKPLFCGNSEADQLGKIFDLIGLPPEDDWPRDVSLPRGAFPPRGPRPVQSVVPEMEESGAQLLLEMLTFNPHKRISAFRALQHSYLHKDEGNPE

Structure (SMILES) | IC50 [1, 4] [nM] | DC50 [2] [nM] | Dmax [2] [%] | DC50 [3] [nM] | Dmax [3] [%] | IC50 ([1]; mantle cell lymphoma cell (Mino or JeKo-1); MTS assay, 72 h; read-out: IC50 (anti-proliferation)) [nM] | Dmax CDK6 [2] | Dmax CDK4 [3]
Cc1nc2c(F)cc(-c3nc(Nc4ccc(CN5CCN(C6CCN(c7ccc(N8CCC(=O)NC8=O)cc7)CC6)CC5)cn4)ncc3F)cc2n1C(C)C [Compound 109, 1-(4-(4-(4-((6-((5-fluoro-4-(4-fluoro-1-isopropyl-2-methyl-1H-benzo[d]imidazol-6-yl)pyrimidin-2-yl)amino)pyridin-3-yl)methyl)piperazin-1-yl)piperidin-1-yl)phenyl) dihydropyrimidine-2,4(1H,3H)-dione] | < 50 | < 50 | > 80 | < 50 | > 80 | – | – | –
CC(=O)c1c(C)c2cnc(Nc3ccc(N4CCN(CC5CN(c6ccc7c(c6)CN(C6CCC(=O)NC6=O)C7=O)C5)CC4)cn3)nc2n(C2CCCC2)c1=O (stereo not drawn) [Compound 118, 3-(5-(3-((4-(6-((6-acetyl-8-cyclopentyl-5-methyl-7-oxo-7,8-dihydropyrido[2,3-d]pyrimidin-2-yl)amino)pyridin-3-yl)piperazin-1-yl)methyl)azetidio-1-yl)-1-oxoisoindolin-2-yl)piperidine-2,6-dione] | < 50 | < 50 | > 80 | < 50 | > 80 | – | – | –
CC(=O)c1c(C)c2cnc(Nc3ccc(C4CCN(C(=O)C5CN(c6ccc(NC7CCC(=O)NC7=O)cc6)C5)CC4)cn3)nc2n(C2CCCC2)c1=O (stereo not drawn) [Compound 132, 3-((4-(3-(4-(6-((6-acetyl-8-cyclopentyl-5-methyl-7-oxo-7,8-dibydropyrido[2,3-d]pyrimidin-2-yl)amino)pyridin-3-yl)piperidine-1-carbonyl)azetidin-1-yl)phenyl)amino) piperidine-2,6-dione] | < 50 | < 50 | > 80 | 50 to 200 | > 80 | – | – | –
CC(=O)c1c(C)c2cnc(Nc3ccc(N4CCN(CCN5CCN(c6ccc7c(c6)CN(C6CCC(=O)NC6=O)C7=O)CC5)CC4)cn3)nc2n(C2CCCC2)c1=O (stereo not drawn) [Compound 68, 3-(5-(4-(2-(4-(6-((6-acetyl-8-cyclopentyl-5-methyl-7-oxo-7,8-dihydropyrido[2,3-d]pyrimidin-2-yl)amino)pyridin-3-yl)piperazin-1-yl)ethyl)piperazin-1-yl)-1-oxoisoindolin-2-yl)piperidine-2,6-dione] | 50 to 200 | 50 to 200 | > 80 | 50 to 200 | > 60 | – | – | –
CC(=O)c1c(C)c2cnc(Nc3ccc(N4CCN(C(=O)N5CCN(CCN6CCC(c7ccc8c(c7)CN(C7CCC(=O)NC7=O)C8=O)CC6)CC5)CC4)cn3)nc2n(C2CCCC2)c1=O (stereo not drawn) [Compound 28, 3-(5-(1-(2-(4-(4-(6-((6-acetyl-8-cyclopentyl-5-methyl-7-oxo-7,8-dihydropyrido[2,3-d]pyrimidin-2-yl)amino)pyridin-3-yl)piperazine-1-carbonyl)piperazin-1-yl)ethyl)piperidin-4-yl)-1-oxoisoindolin-2-yl)piperidine-2,6-dione] | 50 to 200 | > 200 | > 60 | > 200 | > 60 | – | – | –
Cc1nc2c(F)cc(-c3nc(Nc4ccc(CN5CCN(CC6CCN(c7ccc(NC8CCC(=O)NC8=O)cc7)CC6)CC5)cn4)ncc3F)cc2n1C(C)C (stereo not drawn) [Compound 152, 3-((4-(4-((4-((6-((5-fluoro-4-(4-fluoro-1-isopropyl-2-methyl-1H-benzo[d]imidazol-6-yl)pyrimidin-2-yl)amino)pyridin-3-yl)methyl)piperazin-1-yl)methyl)piperidin-1-yl)phenyl)amino) piperidine-2,6-dione] | < 50 | 50 to 200 | > 80 | < 50 | > 80 | – | – | –
CC(=O)c1c(C)c2cnc(Nc3ccc(N4CCN(CCN5CCC(c6ccc7c(c6)CN(C6CCC(=O)NC6=O)C7=O)CC5)CC4)cn3)nc2n(C2CCCC2)c1=O (stereo not drawn) [Compound 72, 3-(5-(1-(2-(4-(6-((6-acetyl-8-cyclopentyl-5-methyl-7-oxo-7,8-dihydropyrido[2,3-d]pyrimidin-2-yl)amino)pyridin-3-yl)piperazin-1-yl)ethyl)piperidin-4-yl)-1-oxoisoindolin-2-yl)piperidine-2,6-dione] | 50 to 200 | > 200 | > 50 | 50 to 200 | > 60 | – | – | –
CC(=O)c1c(C)c2cnc(Nc3ccc(N4CCN(C(=O)C5CCN(c6ccc(C(=O)NC7CCC(=O)NC7=O)cc6)CC5)CC4)cn3)nc2n(C2CCCC2)c1=O (stereo not drawn) [Compound 116, 4-(4-(4-(6-((6-acetyl-8-cyclopentyl-5-methyl-7-oxo-7,8-dihydropyrido[2,3-d]pyrimidin-2-yl)amino)pyridin-3-yl)piperazine-1-carbonyl)piperidin-1-yl)-N-(2,6-dioxopiperidin-3-yl)benzamide] | 50 to 200 | 50 to 200 | > 80 | 50 to 200 | > 80 | – | – | –
CC(=O)c1c(C)c2cnc(Nc3ccc(N4CCN(C(=O)N5CCC(CCN6CCC(c7ccc8c(c7)CN(C7CCC(=O)NC7=O)C8=O)CC6)CC5)CC4)cn3)nc2n(C2CCCC2)c1=O (stereo not drawn) [Compound 30, 3-(5-(1-(2-(1-(4-(6-((6-acetyl-8-cyclopentyl-5-methyl-7-oxo-7,8-dihydropyrido[2,3-d]pyrimidin-2-yl)amino)pyridin-3-yl)piperazine-1-carbonyl)piperidin-4-yl)ethyl)piperidin-4-yl)-1-oxoisoindolin-2-yl)piperidine-2,6-dione] | > 200 | > 200 | > 50 | > 200 | > 50 | – | – | –
Cc1nc2c(F)cc(-c3nc(Nc4ccc(CN5CCN(CC6CN(c7ccc8c(c7)CN(C7CCC(=O)NC7=O)C8=O)C6)CC5)cn4)ncc3F)cc2n1C(C)C (stereo not drawn) [Compound 95, 3-(5-(3-((4-((6-((5-fluoro-4-(4-fluoro-1-isopropyl-2-methyl-1H-benzo[d]imidazol-6-yl)pyrimidin-2-yl)amino)pyridin-3-yl)methyl)piperazin-1-yl)methyl)azetidin-1-yl)-1-oxoisoindolin-2-yl)piperidine-2,6-dione] | < 50 | < 50 | > 80 | < 50 | > 80 | – | – | –
Cc1nc2c(F)cc(-c3nc(Nc4ccc(CN5CCN(C6CCN(c7ccc(C(=O)NC8CCC(=O)NC8=O)cc7)CC6)CC5)cn4)ncc3F)cc2n1C(C)C (stereo not drawn) [Compound 167, N-(2,6-dioxopiperidin-3-yl)-4-(4-(4-((6-((5-fluoro-4-(4-fluoro-1-isopropyl-2-methyl-1H-benzo[d]imidazol-6-yl)pyrimidin-2-yl)amino)pyridin-3-yl)methyl)piperazin-1-yl)piperidin-1-yl)benzamide] | – | 50 to 200 | – | 50 to 200 | – | 50 to 200 | B (B: >60%) | B (B: >60%)
Cc1nc2c(F)cc(-c3nc(Nc4ccc(CN5CCN(C6CN(c7cccc8c7CN(C7CCC(=O)NC7=O)C8=O)C6)CC5)cn4)ncc3F)cc2n1C(C)C (stereo not drawn) [Compound 99, 3-(4-(3-(4-((6-((5-fluoro-4-(4-fluoro-1-isopropyl-2-methyl-1H-benzo[d]imidazol-6-yl)pyrimidin-2-yl)amino)pyridin-3-yl)methyl)piperazin-1-yl)azetidin-1-yl)-1-oxoisoindolin-2-yl)piperidine-2,6-dione] | 50 to 200 | 50 to 200 | > 60 | 50 to 200 | > 60 | – | – | –
